Experimental data published in US11459296B2, “Antibacterial compounds” (INFEX Therapeutics Limited, priority 2018, dated 2022).
Converted amounts (≈) assume the structure as drawn. Structures can show the parent of a compound that is named as a salt.

What was measured:
[1] = Cytotoxicity Assay (CellTiter-Glo); type: cell-based; details: human, Hep G2 cells (ATCC HB-8065); 24 h exposure, cell viability; read-out: HepG2 CC50
Experimental: Cytotoxicity was evaluated in human Hep G2 cells (ATCC HB-8065) seeded at a density of 2×10^5 cells per well and incubated for 24 h at 37° C., 5% CO2. Cells were exposed to a doubling dilution series of test article. After 24 h exposure, the viability of the cells was determined using CellTiter-Glo® (Promega, Wis., USA) according to the manufacturer's instructions. Results are reported as the concentration of test article required to reduce cell viability by 50% (CC50).

NDM-1 = NDM-1 (Klebsiella pneumoniae, UniProt C7C422); experiment: metallo-β-lactamase inhibition assay (nitrocefin); type: biochemical; details: 1.5 nM NDM-1, 100 μM nitrocefin, 37° C., pH 7.5
Experimental: Compounds of the invention were tested in a metallo-β-lactamase inhibition assay to investigate mechanism of action of the compounds. Results are reported as the concentration of test article required to inhibit enzyme activity by 50% (IC50).
Inhibition of metallo-β-lactamase enzyme function was performed at 37° C. in buffer at pH 7.5 (50 mM HEPES, 150 mM NaCl, 0.1 mM ZnSO4, 20 μg/mL PEG4000), containing 1.5 nM NDM-1, 100 μM nitrocefin, and a range of concentrations of compound. Absorbance at 490 nm was measured using a BMG LABTECH FLUOstar Omega microplate reader every minute for 30 minutes. IC50S were determined from the average increase in OD per minute versus the Log 10 concentration of compound using GraphPad Prism.

Chain of NDM-1 (C7C422 whole entry, looked up, species assumed): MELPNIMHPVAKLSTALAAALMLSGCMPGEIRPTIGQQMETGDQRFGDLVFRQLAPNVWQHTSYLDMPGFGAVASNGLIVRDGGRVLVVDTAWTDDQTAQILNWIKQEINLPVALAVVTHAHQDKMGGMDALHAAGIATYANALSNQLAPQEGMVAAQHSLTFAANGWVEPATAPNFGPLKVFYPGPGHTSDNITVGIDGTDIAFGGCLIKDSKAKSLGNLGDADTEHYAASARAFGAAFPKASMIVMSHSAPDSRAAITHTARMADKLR

IC50 (NDM-1) [nM] | Structure (SMILES) | CC50 at 24 h [1] [µg/mL]
– | NS(=O)(=O)n1ccc(-c2ccc(S(=O)(=O)N3CCNCC3)cc2)c1C(=O)O [Example 35, 3-[4-(Piperazine-1-sulfonyl)phenyl]-1-sulfamoyl-1H-pyrrole-2-carboxylic acid] | > 256
725 | NS(=O)(=O)n1ccc(-c2ccc(F)cc2)c1C(=O)O [Example 18, 3-(4-Fluorophenyl)-1-sulfamoyl-pyrrole-2-carboxylic acid, sodium salt] | > 256
2570 | NS(=O)(=O)n1ccc(-n2cccc2)c1C(=O)O [Example 73, 3-Pyrrol-1-yl-1-sulfamoyl-pyrrole-2-carboxylic acid, Sodium Salt] | > 256
– | Cc1nn(C)c(C)c1-c1ccn(S(N)(=O)=O)c1C(=O)O [Example 7, 1-Sulfamoyl-3-(1,3,5-trimethyl-1H-pyrazol-4-yl)-1H-pyrrole-2-carboxylic acid, sodium salt] | > 256
448 | NS(=O)(=O)n1ccc(-c2cccnc2)c1C(=O)O [Example 8, 3-(Pyridin-3-yl)-1-sulfamoyl-1H-pyrrole-2-carboxylic acid, sodium salt] | > 256
548 | NS(=O)(=O)n1ccc(-c2ccc(NS(=O)(=O)C3CC3)cc2)c1C(=O)O [Example 23, 3-[4-(Cyclopropylsulfonylamino)phenyl]-1-sulfamoyl-pyrrole-2-carboxylic acid] | > 256
– | NS(=O)(=O)n1ccc(-c2ccc(N3CCOCC3)nc2)c1C(=O)O [Example 16, 3-[6-(Morpholin-4-yl)pyridin-3-yl]-1-sulfamoyl-1H-pyrrole-2-carboxylic acid] | > 64
512 | NC(=O)c1ccc(-c2ccn(S(N)(=O)=O)c2C(=O)O)cc1 [Example 26, 3-(4-Carbamoylphenyl)-1-sulfamoyl-pyrrole-2-carboxylic acid] | –
151 | NS(=O)(=O)n1ccc(-c2ccc(C3CCNCC3)cc2)c1C(=O)O [Example 34, 3-[4-(Piperidin-4-yl)phenyl]-1-sulfamoyl-1H-pyrrole-2-carboxylic acid hydrochloride] | > 256
4120 | NS(=O)(=O)n1ccc(-c2cccc3ncccc23)c1C(=O)O [Example 11, 3-(5-Quinolyl)-1-sulfamoyl-pyrrole-2-carboxylic acid, sodium salt] | > 256
608 | CC(=O)Nc1ccc(-c2ccn(S(N)(=O)=O)c2C(=O)O)cn1 [Example 24, 3-(6-Acetamido-3-pyridyl)-1-sulfamoyl-pyrrole-2-carboxylic acid] | –
– | NS(=O)(=O)n1ccc(-c2ccc(OC3CCNCC3)cc2)c1C(=O)O [Example 37, 3-[4-(Piperidin-4-yloxy)phenyl]-1-sulfamoyl-1H-pyrrole-2-carboxylic acid hydrochloride] | > 256
2790 | Cn1c(N)nc2c(-c3ccn(S(N)(=O)=O)c3C(=O)O)cccc21 [Example 46, 3-(2-Amino-1-methyl-benzimidazol-4-yl)-1-sulfamoyl-pyrrole-2-carboxylic acid hydrochloride] | > 256
– | NS(=O)(=O)n1ccc(-c2ccc(-c3ccncc3)cc2)c1C(=O)O [Example 13, 3-[4-(Pyridin-4-yl)phenyl]-1-sulfamoyl-1H-pyrrole-2-carboxylic acid] | > 256
– | CC(C)(C)OC(=O)N1CCN(S(=O)(=O)c2ccc(-c3ccn(S(N)(=O)=O)c3C(=O)O)cc2)CC1 [Example 17, 3-[4-(4-tert-Butoxycarbonylpiperazin-1-yl)sulfonylphenyl]-1-sulfamoyl-pyrrole-2-carboxylic acid, sodium salt] | 252
– | NS(=O)(=O)c1ccn(Cc2ccccc2)c1C(=O)O [Example 84, 1-Benzyl-3-sulfamoyl-pyrrole-2-carboxylic acid] | > 256
– | CN(C)S(=O)(=O)N1CCC(c2ccc(-c3ccn(S(N)(=O)=O)c3C(=O)O)cc2)CC1 [Example 49, 3-[4-[1-(Dimethylsulfamoyl)piperidin-4-yl]phenyl]-1-sulfamoyl-1H-pyrrole-2-carboxylic acid] | 66.4 (≈ 145 µM)
– | NS(=O)(=O)n1ccc(Cc2ccccc2)c1C(=O)O [Example 54, 3-Benzyl-1-sulfamoyl-1H-pyrrole-2-carboxylic acid] | 248 (≈ 884 µM)
314 | Nc1nc2c(-c3ccn(S(N)(=O)=O)c3C(=O)O)cccc2s1 [Example 53, 3-(2-Amino-1,3-benzothiazol-4-yl)-1-sulfamoyl-pyrrole-2-carboxylic acid hydrochloride] | –
– | NS(=O)(=O)c1ccn(-c2ccc(F)cc2)c1C(=O)O [Example 80, 1-(4-Fluorophenyl)-3-sulfamoyl-pyrrole-2-carboxylic acid] | > 256
1360 | Nc1ncc(-c2ccn(S(N)(=O)=O)c2C(=O)O)cn1 [Example 25, 3-(2-Aminopyrimidin-5-yl)-1-sulfamoyl-pyrrole-2-carboxylic acid, sodium salt] | –

IC50 (NDM-1) [nM] | Structure (SMILES) | CC50 at 24 h [1] [µg/mL]
– | NS(=O)(=O)n1ccc(C2CCNCC2)c1C(=O)O [Example 57, 3-(Piperidin-4-yl)-1-sulfamoyl-1H-pyrrole-2-carboxylic acid hydrochloride] | > 256
– | CC(=O)N1CCC(c2ccc(-c3ccn(S(N)(=O)=O)c3C(=O)O)cc2)CC1 [Example 48, 3-[4-(1-Acetylpiperidin-4-yl)phenyl]-1-sulfamoyl-1H-pyrrole-2-carboxylic acid] | 158 (≈ 405 µM)
– | Cc1cn(S(N)(=O)=O)c(C(=O)O)c1-c1ccccc1 [Example 75, 4-Methyl-3-phenyl-1-sulfamoyl-1H-pyrrole-2-carboxylic acid] | > 256
834 | NCCC(=O)N1CCC(c2ccn(S(N)(=O)=O)c2C(=O)O)CC1 [Example 63, 3-[1-(3-Aminopropanoyl)-4-piperidyl]-1-sulfamoyl-pyrrole-2-carboxylic acid] | –
656 | Nc1nc2ccc(-c3ccn(S(N)(=O)=O)c3C(=O)O)cn2n1 [Example 47, 3-(2-Amino-[1,2,4]triazolo[1,5-a]pyridin-6-yl)-1-sulfamoyl-pyrrole-2-carboxylic acid hydrochloride] | –
– | NS(=O)(=O)n1ccc(C2CCCCC2)c1C(=O)O [Example 10, 3-Cyclohexyl-1-sulfamoyl-pyrrole-2-carboxylic acid, sodium salt] | 145
– | NS(=O)(=O)c1ccn(-c2ccc(C3CCNCC3)cc2)c1C(=O)O [Example 82, 1-[4-(Piperidin-4-yl)phenyl]-3-sulfamoyl-1H-pyrrole-2-carboxylic acid, sodium salt] | > 256
– | NS(=O)(=O)n1ccc(C2CC2)c1C(=O)O [Example 55, 3-Cyclopropyl-1-sulfamoyl-1H-pyrrole-2-carboxylic acid] | > 256
– | NS(=O)(=O)n1ccc(-c2ccccc2)c1C(=O)O [Example 3, 3-Phenyl-1-sulfamoyl-1H-pyrrole-2-carboxylic acid, sodium salt] | > 128
– | Cc1ccc(-n2ccc(S(N)(=O)=O)c2C(=O)O)cc1 [Example 81, 1-(p-Tolyl)-3-sulfamoyl-pyrrole-2-carboxylic acid] | > 256
– | CS(=O)(=O)N1CCC(c2ccn(S(N)(=O)=O)c2C(=O)O)CC1 [Example 59, 3-(1-Methylsulfonyl-4-piperidyl)-1-sulfamoyl-pyrrole-2-carboxylic acid] | > 256
– | CCc1cn(S(N)(=O)=O)c(C(=O)O)c1-c1ccccc1 [Example 74, 4-Ethyl-3-phenyl-1-sulfamoyl-pyrrole-2-carboxylic acid] | 237 (≈ 805 µM)
264 | NS(=O)(=O)n1ccc(-c2cccc(C3CCNCC3)c2)c1C(=O)O [Example 40, 3-[3-(4-Piperidyl)phenyl]-1-sulfamoyl-pyrrole-2-carboxylic acid hydrochloride] | –
– | CN(C)S(=O)(=O)c1ccc(-c2ccn(S(N)(=O)=O)c2C(=O)O)cc1 [Example 4, 3-[4-(Dimethylsulfamoyl)phenyl]-1-sulfamoyl-1H-pyrrole-2-carboxylic acid, sodium salt] | > 128
– | N#Cc1ccc(-c2ccn(S(N)(=O)=O)c2C(=O)O)cc1 [Example 15, 3-(4-Cyanophenyl)-1-sulfamoyl-1H-pyrrole-2-carboxylic acid] | > 256
– | COc1ccc(-n2ccc(S(N)(=O)=O)c2C(=O)O)cc1 [Example 83, 1-(4-Methoxyphenyl)-3-sulfamoyl-pyrrole-2-carboxylic acid] | > 256
263 | NCCCNC(=O)c1ccc(-c2ccn(S(N)(=O)=O)c2C(=O)O)cc1 [Example 51, 3-[4-(3-Aminopropylcarbamoyl)phenyl]-1-sulfamoyl-pyrrole-2-carboxylic acid hydrochloride] | –
– | NS(=O)(=O)n1ccc(-c2ccccc2F)c1C(=O)O [Example 14, 3-(2-Fluorophenyl)-1-sulfamoyl-pyrrole-2-carboxylic acid] | > 256
– | NS(=O)(=O)n1ccc(C2=CCNCC2)c1C(=O)O [Example 38, 1-Sulfamoyl-3-(1,2,3,6-tetrahydropyridin-4-yl)-1H-pyrrole-2-carboxylic acid hydrochloride] | > 256
– | Cc1ccccc1-c1ccn(S(N)(=O)=O)c1C(=O)O [Example 20, 3-(o-Tolyl)-1-sulfamoyl-pyrrole-2-carboxylic acid] | > 256
